Experimental data reported in patent publication US6071905A, “Biologically active substance on the basis of tetracyclic nitrogen heterocycles of pyrimidine row” (Natural Drug Sciences, LLC, priority 1998, dated 2000).
In brackets after ≈: the same amount, converted by molar mass.

Columns and labels:
[1] = test system: herpes virus I of the type (VPG-1/Leningrad/248/88); assay: antiviral action on herpes virus in Vero cells (cytopathogenic action); type: cell-based; conditions: 36 hours, 38° C.
[2] = test system: M. smegmatis ATCC607; assay: series culture (dilution) method, MIC, M. smegmatis ATCC607; type: cell-based, Mycobacterium smegmatis; conditions: Mycolicibacterium smegmatis, 72 hour cultivation, 37° C., medium N-1
[3] = test system: M. tuberculosis H37Rv; assay: series culture (dilution) method, MIC, M. tuberculosis H37Rv; type: cell-based; conditions: Mycobacterium tuberculosis, 72 hour cultivation, 37° C., Soton medium with 10% horse serum
Experimental: In order to determine antimicrobial activity standard strains Mycobacterium smegmatis ATCC607 and Mycobacterium tuberculosis H37RV were used which are sensitive to all antimicrobial compounds.
The evaluation of antimicrobial action was performed with the method of series culture (5). M. smegmatis ATCC607 for seeding was grown on liquid synthetic medium N-1.
The compounds were dissolved in dimethyl sulfoxide (DMSO) and tittered in medium N-1, so that this compound was contained in separate test tubes with the medium in concentration of 200-0.025 mg/l. The concentration of the compound in the medium of neighboring test tubes was differed twice. For the control, DMSO which was tittered the same as the compound, was utilized. Test strain of bacteria was added in the quantity 1-2×10^6 ml. The result was considered after 72 hour cultivation of test tubes at 37° C.
For M tuberculosis H37Rv conditions of experiment were identical, with the exception of the fact that bacteria were grown on the Soton medium which contains 10% horse serum, and density of microbial suspension during seeding was (5.0×10^6) in ml.
As the control, in both cases known tuberculostatic compounds were utilized.

[4] = test system: M. avium 84; assay: action on pathogenic mycobacteria from patients, Lowenstein-Jensen medium, M. avium 84; type: cell-based, Mycobacterium avium; conditions: title: concentration of compound 10.0 g/l; 30 days
[5] = test system: primary culture of human lymphocytes; assay: interferon-inducing activity in primary culture of human lymphocytes (immuno-ferment assay); type: cell-based; conditions: 24 hours of incubation
[6] = test system: C. trachomatis D323; assay: action on Chlamydia trachomatis in cell culture (McCoy and L929); type: cell-based; conditions: 48 hours
[7] = test system: Vero; assay: control of compounds (toxicity) on Vero cell culture; type: cell-based
[8] = test system: M. bovis bovinus 8; type: in vivo, M. bovis bovinus 8; no-breed male mice; conditions: for Coefficient of lung mass / Index of damage lungs / Perished animals: 42 day after infection; for Coefficient of lung mass / Index of damage lungs / Seeding M.tub.: dose not given; for Perished animals: tested compounds orally (10, 20 and 30 mg/kg), streptomycin intramuscularly; for Seeding M.tub.: from spleen, CFU per 100 mg
[9] = in vivo; conditions: mouse

Compound: Nc1nc2c(ncn2COCCO)c(=O)[nH]1 [Acyclovir, reference compound]
- number of unchanged cells in 100 fields ([1]; 10 mg/l): 8000

Compound: CC[C@@H](CO)NCCN[C@@H](CC)CO [Ethambutol, reference compound]
- MIC [2]: 5 µg/mL (≈ 24.5 µM)
- MIC [3]: 5 µg/mL (≈ 24.5 µM)

Compound: NNC(=O)c1ccncc1 [Isoniazid, hydrazide of izonicotinic acid, reference compound]
- antimicrobial action, M. avium 84 [4]: growth
- MIC [2]: 1.5 µg/mL (≈ 10.9 µM)
- MIC [3]: 0.1 µg/mL (≈ 0.729 µM)

Compound: CC1COc2c(N3CCN(C)CC3)c(F)cc3c(=O)c(C(=O)O)cn1c23 (centres unmarked) [Ofloxacin, reference compound]
- MIC [2]: 0.5 µg/mL (≈ 1.38 µM)
- MIC [3]: 0.5 µg/mL (≈ 1.38 µM)

Compound: O=c1c2cc([N+](=O)[O-])cc(Br)c2oc2nc3n(c(=O)c12)CCCS3 [R1=Br, R2-NO2, 1-bromo-3-nitro-5-oxo-5H-[1]-benzopyrano-[5,6-b]-4-oxo-4H-[1,2]-pyrimido-1,4,5,6-tetrahydro-1,3-thiazine]
- MIC [2]: 100 µg/mL (≈ 244 µM)
- MIC [3]: 25 µg/mL (≈ 60.9 µM)

Compound: O=c1c2cc([N+](=O)[O-])cc(Cl)c2oc2nc3n(c(=O)c12)CCCS3 [R1=Cl, R2=NO2, 1-chloro-3-nitro-5-oxo-5H-[1]-benzopyrano-[5,6-b]-4-oxo-4H-[1,2]-pyrimido-1,4,5,6-tetrahydro-1,3-thiazine]
- MIC [2]: 100 µg/mL (≈ 273 µM)
- MIC [3]: 50 µg/mL (≈ 137 µM)
- Content of IFN in induction mixture ([5]; 1 μg/ml): 3.6 ± 0.5 ME/3*10^4 limph./ml
- Content of IFN in induction mixture ([5]; 10 μg/ml): 18 ± 1.6 ME/3*10^4 limph./ml

Compound: O=c1c2cc(Br)ccc2oc2nc3n(c(=O)c12)CCCS3 [R1=H, R2=Br, 3-bromo-5-oxo-5H-[1]-benzopyrano-[5,6-b]-4-oxo-4H-[1,2]-pyrimido-1,4,5,6-tetrahydro-1,3-thiazine]
- MIC [2]: 50 µg/mL (≈ 137 µM)
- MIC [3]: 25 µg/mL (≈ 68.5 µM)
- Number of unchanged cells ([6]; 100 mg/l): 7.000
- Content of IFN in induction mixture ([5]; 1 μg/ml): 14 ± 0.5 ME/3*10^4 limph./ml
- Content of IFN in induction mixture ([5]; 10 μg/ml): 84 ± 2.5 ME/3*10^4 limph./ml
- Content of IFN in induction mixture ([5]; 100 μg/ml): 192 ± 1.6 ME/3*10^4 limph./ml

Compound: O=c1c2cc(Cl)ccc2oc2nc3n(c(=O)c12)CCCS3 [R1=H, R2=Cl, 3-chloro-5-oxo-5H-[1]-benzopyrano-[5,6-b]-4-oxo-4H-[1,2]-pyrimido-1,4,5,6-tetrahydro-1,3-thiazine]
- MIC [2]: 10 µg/mL (≈ 31.2 µM)
- MIC [3]: 10 µg/mL (≈ 31.2 µM)

Compound: O=c1c2cc([N+](=O)[O-])ccc2oc2nc3n(c(=O)c12)CCCS3 [R1=H, R2=NO2, 3-nitro-5-oxo-5H-[1]-benzopyrano-[5,6-b]-4-oxo-4H-[1,2]-pyrimido-1,4,5,6-tetrahydro-1,3-thiazine]
- MIC [2]: 100 µg/mL (≈ 302 µM)
- toxicity of compounds to cells ([7]; 50 mg/l): toxic
- toxicity of compounds to cells ([7]; 100 mg/l): toxic
- MIC [3]: 50 µg/mL (≈ 151 µM)
- number of unchanged cells in 100 fields ([1]; 10 mg/l): 6000
- Content of IFN in induction mixture ([5]; 1 μg/ml): 4.2 ± 0.8 ME/3*10^4 limph./ml
- Content of IFN in induction mixture ([5]; 10 μg/ml): 20 ± 1.2 ME/3*10^4 limph./ml
- Content of IFN in induction mixture ([5]; 100 μg/ml): 48 ± 1.2 ME/3*10^4 limph./ml

Compound: COc1ccc2oc3nc4n(c(=O)c3c(=O)c2c1)CCCS4 [R1=H, R2=OCH3, 3-methoxy-5-oxo-5H-[1]-benzopyrano-[5,6-b]-4-oxo-4H-[1, 2]-pyrimido-1,4,5,6-tetrahydro-1,3-thiazine]
- MIC [2]: 100 µg/mL (≈ 316 µM)
- MIC [3]: 50 µg/mL (≈ 158 µM)

Compound: O=c1c2cc(O)ccc2oc2nc3n(c(=O)c12)CCCS3 [R1=H, R2=OH, 3-hydroxy-5-oxo-5H-[1]-benzopyrano-[5,6-b]-4-oxo-4H-[1,2]-pyrimido-1,4,5,6-tetrahydro-1,3-thiazine]
- MIC [2]: 100 µg/mL (≈ 331 µM)
- MIC [3]: 50 µg/mL (≈ 165 µM)

Compound: O=c1c2cc(Br)cc(Br)c2oc2nc3n(c(=O)c12)CCCS3 [R1=R2=Br, 1,3-dibromo-5-oxo-5H-[1]-benzopyrano-[5,6-b]-4-oxo-4H-[1,2]-pyrimido-1,4,5,6-tetrahydro-1,3-thiazine]
- Coefficient of lung mass [8]: 2.30 con. units
- Index of damage lungs [8]: 2.3 con. unit
- Perished animals [8]: 0%
- Seeding M.tub. [8]: 180 CFU
- MIC [2]: 0.1 µg/mL (≈ 0.225 µM)
- MIC [3]: 0.1 µg/mL (≈ 0.225 µM)
- LD50 at 336 h [9]: > 1500 mg/kg
- Content of IFN in induction mixture ([5]; 1 μg/ml): 4.0 ± 0.5 ME/3*10^4 limph./ml
- Content of IFN in induction mixture ([5]; 10 μg/ml): 23 ± 1.0 ME/3*10^4 limph./ml
- Content of IFN in induction mixture ([5]; 100 μg/ml): 47 ± 0.8 ME/3*10^4 limph./ml

Compound: O=c1c2cc(Cl)cc(Cl)c2oc2nc3n(c(=O)c12)CCCS3 [R1=R2=Cl, 1,3-dichloro-5-oxo-5H-[1]-benzopyrano-[5,6-b]-4-oxo-4H-[1,2]-pyrimido-1,4,5,6-tetrahydro-1,3-thiazine]
- Coefficient of lung mass [8]: 2.42 con. units
- Index of damage lungs [8]: 2.5 con. unit
- Perished animals [8]: 0%
- Seeding M.tub. [8]: 195 CFU
- MIC [2]: 1 µg/mL (≈ 2.82 µM)
- MIC [3]: 0.3 µg/mL (≈ 0.845 µM)
- LD50 at 336 h [9]: > 1500 mg/kg

Compound: O=c1c2ccccc2oc2nc3n(c(=O)c12)CCCS3 [R1=R2=H, 5-oxo-5H-[1]-benzopyrano-[5,6-b]-4-oxo-4H-[1,2]-pyrimido-1,4,5,6-tetrahydro-1,3-thiazine]
- MIC [2]: 0.3 µg/mL (≈ 1.05 µM)
- toxicity of compounds to cells ([7]; 100 mg/l): toxic
- MIC [3]: 0.6 µg/mL (≈ 2.1 µM)
- number of unchanged cells in 100 fields ([1]; 10 mg/l): 3000
- number of unchanged cells in 100 fields ([1]; 50 mg/l): 6000
- LD50 at 336 h [9]: > 1500 mg/kg
- Number of unchanged cells ([6]; 10 mg/l): 7.200

Compound: CO[C@H]1/C=C/O[C@@]2(C)Oc3c(C)c(O)c4c(O)c(cc(O)c4c3C2=O)NC(=O)/C(C)=C\C=C\[C@H](C)[C@H](O)[C@@H](C)[C@@H](O)[C@@H](C)[C@H](OC(C)=O)[C@@H]1C [Rifamycin, reference compound]
- antimicrobial action, M. avium 84 [4]: growth
- MIC [2]: 0.25 µg/mL (≈ 0.358 µM)
- MIC [3]: 0.05 µg/mL (≈ 0.0717 µM)

Compound: [H]/N=C(/N)N[C@H]1[C@H](O)[C@@H](O)[C@H](O[C@@H]2O[C@@H](C)[C@](O)(C=O)[C@H]2O[C@@H]2O[C@@H](CO)[C@H](O)[C@@H](O)[C@@H]2NC)[C@@H](N/C(N)=N\[H])[C@@H]1O [Streptomycin, reference compound]
- Coefficient of lung mass [8]: 2.47 con. units
- Index of damage lungs [8]: 2.45 con. unit
- Perished animals [8]: 0%
- Seeding M.tub. [8]: 200 CFU
- antimicrobial action, M. avium 84 [4]: growth
- MIC [2]: 0.15 µg/mL (≈ 0.258 µM)
- MIC [3]: 0.2 µg/mL (≈ 0.344 µM)
